# Patent US7858585B2, “Hydrogels and uses thereof” (University of Delaware, priority 2005, dated 2010)
# Key:
# [1] = Oscillatory rheology of 0.5 wt % MAX1 and HPL8 hydrogels in DMEM, pH 7.4, 37° C.; assay type: physicochemical
# Procedure: (§1) To a vial containing 1 mg of peptide, 100 μL of 25 mM HEPES, pH 7.4 was added resulting in a soluble 1 wt % peptide solution. To this solution, an equal volume of DMEM supplemented with 25 mM HEPES, pH 7.4 was added to initiate self-assembly, resulting in a 0.5 wt % hydrogel. All hydrogels were prepared by this method unless otherwise stated.
# Oscillatory rheology experiments were performed on a TA Instruments rheometer (AR 2000) with a 25 mm diameter stainless steel parallel plate geometry with a gap height of 0.5 mm. All measurements were acquired at 37° C. For dynamic time sweeps (DTS) the hydrogels were prepared as stated above and quickly transferred to the rheometer where the storage modulus (G′) was monitored as a function of time, frequency=6 rad. sec-1 and strain=0.2%. For the shear thinning experiments, a DTS was preformed for 10 min at which time 1000% stain was applied for 30 seconds to shear thin the material. After which time, the strain was decreased to 0.2% and G′ monitored as a function of time. Dynamic frequency, dynamic strain and dynamic time sweep measurements measuring both G′ and the loss modulus (G″) are provided in FIG. 36.
# [2] = system: C3H10t1/2 cells; assay: Live/Dead assay of encapsulated cells after shear thin delivery; assay type: cell-based; details: 0.5 wt % hydrogel, three hours after delivery
# Procedure: Lastly, the effect of shear thin delivery on cell viability was assessed by performing a Live-Dead assay on cells that had been encapsulated into a 0.5 wt % HPL8 hydrogel and subsequently shear thin delivered to a LSCM well FIG. 33c. In this micrograph, cells contained within the interior of the gel are visualized by viewing from the top of the gel (along the z-axis, depth of field is 90 μm.). Three hours after the gel/cell construct had been shear-thin delivered, calcien AM and ethidium homodimer were added to the top of the gel, which freely diffuse through the gel network, staining live cells green and dead cells red, respectively. […] In fact, the limited degree of cell death observed in FIG. 33c is nearly identical to that of the control experiment where cells were encapsulated in HPL8 hydrogel but not shear thin delivered (FIG. 35).
# C3H10t1/2 cell growth conditions are 90% DMEM supplemented with 25 mM HEPES, 10% FBS, 5 mM L-glutamine, and 50 μg/mL Gentamicin at 37° C., 5% CO2. For confocal micrographs of hydrogels impregnated with pre-labeled cells, a suspension of 1.5 e6 cells/mL were incubated in a solution of 5 μM cell tracker green in DMEM for 45 min. […] Viability of encapsulated cells in 0.5 wt % hydrogels (before and after shear thinning) was assessed via a Live/Dead assay at 3 hr after encapsulation. […]
# [3] = CD kinetics of β-sheet formation ([θ]216) after addition of DMEM; assay type: physicochemical; details: 0.5 wt %, pH 7.4, 37° C.
# Procedure: as §1
# CD kinetic spectra were collected on a Jasco J-810 spectropolarimeter employing 0.1 mm quartz water-jacketed cell. Peptide samples were prepared as stated above, transferred to the cell at 37° C. The ellipiticity in millidegrees were monitored at 216 nm as a function of time. Following the kinetic measurement, a wavelength scan was recorded at 37° C. using a 2 nm step size. The concentrations of MAX1 and HPL8 stock solutions were determined by absorbance (λ220=15750 cm-1.M-1) after dilution with water. Mean residue ellipticity [θ]=(θobs/10.1.c)/r, where θobs is the measured ellipticity in millidegrees, l is the length of the cell (cm), c is the concentration (M) and r is the number of residues.
# [4] = system: C3H10t1/2 mesenchymal stem cells; assay: Encapsulation of mesenchymal stem cells in hydrogel, LSCM imaging of cell distribution; assay type: cell-based
# Source text: For example, FIG. 29 contains a Laser Scanning Confocal Microscopy (LSCM) cross-sectional view of C3H10t1/2 cells encapsulated within a 0.5 wt % MAX1 hydrogel. In this micrograph, cells contained within the interior of the gel are visualized from the side of the gel (along the y-axis, depth of field is 920 μm); the top and bottom of the image is the top and bottom of the gel, respectively. Cells are encapsulated by first dissolving 1.0 wt % MAX1 in buffer at pH 7.4. To this solution, an equal volume (50 μL) of DMEM cell culture medium containing 250,000 cells is added. The salt within the DMEM electrostatically screens the lysine side chain charges resulting in peptide folding and consequent self-assembly. This simple one-to-one addition of solutions affords gels impregnated with cells. However, it is clear in FIG. 29 that the hydrogelation kinetics of MAX1 are not fast enough to entrap the cells homogeneously since a majority of the cells sediment to the bottom of the gel sample well.
# C3H10t1/2 cell growth conditions are 90% DMEM supplemented with 25 mM HEPES, 10% FBS, 5 mM L-glutamine, and 50 μg/mL Gentamicin at 37° C., 5% CO2. […] Viability of encapsulated cells in 0.5 wt % hydrogels (before and after shear thinning) was assessed via a Live/Dead assay at 3 hr after encapsulation. […]
substance,measurement,setting,value
VKVKVKVKV^DPPTKVEVKVKV-NH2 [HPL8],G′ within the first 40 seconds,"[1]; pH 7.4, 37° C.",> 100 Pa
same,G′ at five minutes,[1]; phase I initial gelation,450 Pa
same,G′ within a minute,[1]; phase I initial gelation,> 100 Pa
same,cell viability after shear thin delivery,[2],majority of the cells remain viable
same,time to completely fold and self-assemble affording gel,[3],under a minute
same,distribution of cells encapsulated in gel,"[4]; 0.5 wt % gel, 250K cells in DMEM, pH 7.4, 37° C.",homogeneous distribution of cells
same,distribution of cells after shear thinning via syringe,[4]; 0.5 wt % gel/cell construct formed in a syringe,still retain the homogeneous cell distribution
